What was measured:
[1] = Drug-drug interaction study: effect of multiple doses of elagolix sodium on pharmacokinetics of bupropion (CYP2B6 substrate) and OH-bupropion; details: for t1/2: harmonic mean
Description: Subjects: Twenty four (24) adult premenopausal women in generally good health participated in this study.
Elagolix 300 mg BID (as 300 mg immediate release tablets) was administered in the morning and evening on days 1 through 14 in period 2. […] No food was consumed for 2 hours prior to the evening doses of elagolix continuing through 2 hours after. The doses of elagolix were separated by approximately 12 hours.
Individual PK parameters (peak concentration [Cmax] and area under the concentration-time curve [AUC]) were estimated using noncompartmental methods.
Central value ratios (90% confidence intervals) for Cmax, AUC, and metabolite to parent ratios (MPRs) (day 11, period 2 vs. day 1, period 1) were calculated to assess the DDIs. Safety was evaluated through assessment of adverse events, vital signs, electrocardiogram, and clinical laboratory tests.
Adverse events (AEs) were monitored throughout the DDI study. Additional safety evaluations included monitoring of physical examinations, vital signs, electrocardiogram variables, and clinical laboratory values were assessed

[2] = Drug-drug interaction study: effect of multiple doses of elagolix sodium on pharmacokinetics of omeprazole (CYP2C19 substrate) and its metabolites; details: for Tmax / RAUCinf = metabolite-to-omeprazole AUCinf ratio / RAUCt = metabolite-to-omeprazole AUCt ratio: median; for M:P AUCinf Ratio, Relative Bioavailability Point Estimate / M:P AUCt Ratio, Relative Bioavailability Point Estimate: Day 11 vs. Day 1; for AUCinf / AUCt / Cmax: geometric mean; for M:P AUCinf Ratio, Central Value Reference / M:P AUCt Ratio, Central Value Reference: Study Day 1: omeprazole 40 mg; for M:P AUCinf Ratio, Central Value Test / M:P AUCt Ratio, Central Value Test: Study Day 11: elagolix 300 mg BID + omeprazole 40 mg
Description: Subjects: Twenty adult premenopausal female subjects were enrolled in the study.
Beginning on Day 3, subjects received elagolix 300 mg BID under fasting conditions every day until Day 10. […] Doses of elagolix were separated by approximately 12 hours.
Testing was performed for CYP2C19 variants including the *2 (r54244285), *3 (r54986893), *4 (r528399504), *8 (r541291556), *10 (r56413438) and *12 (r555640102) alleles.
Safety was evaluated during confinement and at each study visit through adverse event monitoring, vital signs measurements, physical examinations, and routine laboratory tests.

[3] = Drug interactions: effects of ORIAHNN on other drugs; details: co-administration of ORIAHNN
[4] = Drug interactions: effects of ORILISSA on other drugs; details: co-administration of ORILISSA
[5] = Drug interaction studies: change in pharmacokinetics of co-administered drug in the presence of elagolix; type: in vivo, human
Description: Drug interaction studies were performed with elagolix and other drugs likely to be co-administered and with drugs commonly used as probes for pharmacokinetic interactions. Tables 8 and 9 summarize the pharmacokinetic effects when elagolix was co-administered with these drugs.

[6] = bupropion 150 mg + elagolix 300 mg BID (Day 11, Period 2), mean
[7] = bupropion 150 mg alone (Day 1, Period 1), mean
[8] = bupropion + elagolix (Day 11, Period 2), median
[9] = bupropion alone (Day 1, Period 1), median
[10] = single 150 mg bupropion, elagolix 300 mg twice daily
[11] = Study Day 11, omeprazole 40 mg + elagolix 300 mg BID
[12] = norethindrone 0.35 mg once daily x 112 days, elagolix 150 mg once daily x 56 days, N 32
[13] = Study Day 1, omeprazole 40 mg, harmonic mean
[14] = ethinyl estradiol 35 mcg and triphasic norgestimate 0.18/0.215/0.25 mg once daily, elagolix 150 mg once daily, N 21
[15] = single 40 mg omeprazole, elagolix 300 mg twice daily

## CC(NC(C)(C)CO)C(=O)c1cccc(Cl)c1 (centres unmarked) [OH-Bupropion]
[1]; bupropion 150 mg + elagolix 300 mg BID (Day 11, Period 2)
  t1/2: 20.5 h
[1]; [6]
  AUCinf: 17600 ng·h/mL
  AUCt: 17000 ng·h/mL
  Cmax: 429 ng/mL
[1]; bupropion 150 mg + elagolix 300 mg BID (Day 11, Period 2), median, N = 24
  Tmax: 6.0 h
[1]; bupropion 150 mg alone (Day 1, Period 1)
  t1/2: 24.7 h
[1]; [7]
  AUCinf: 16700 ng·h/mL
  AUCt: 15700 ng·h/mL
  Cmax: 323 ng/mL
[1]; bupropion 150 mg alone (Day 1, Period 1), median, N = 24
  Tmax: 10.0 h
[1]; [8]
  Metabolite to Parent AUCinf Ratio: 15.9
  Metabolite to Parent AUCt Ratio: 15.9
  Metabolite to Parent Cmax Ratio: 3.92
[1]; [9]
  Metabolite to Parent AUCinf Ratio: 15.7
  Metabolite to Parent AUCt Ratio: 15.4
  Metabolite to Parent Cmax Ratio: 3.61
[1]
  Cmax upon co-administration with elagolix, in words: increased
[1]; elagolix 300 mg BID
  changes in metabolite to parent ratios (OH-bupropion/bupropion) of Cmax and AUC: ≤ 12%
  increase in Cmax upon co-administration with elagolix: 32%
[1]; [10]
  AUCinf ratio, co-administered with elagolix vs bupropion alone: about 1.063
  Cmax ratio, co-administered with elagolix vs bupropion alone: about 1.317

## COc1ccc2[nH]c([S+]([O-])Cc3ncc(C)c(OC)c3C)nc2c1 (centres unmarked) [omeprazole, 5-methoxy-2-[[(4-methoxy3,5-dimethyl-2-pyridinyl)methyl]sulfinyl]-1H-benzimidazole, reference compound]
[2]; Study Day 1, omeprazole 40 mg
  Tmax: 2.0 h
[2]; [11]
  Tmax: 2.0 h
[2]; female, human, in vivo
  t1/2: 1.57 h
[2]; female, human, in vivo, 300 mg
  increase in AUCinf: 1.8 fold
  increase in Cmax: 1.9 fold
[2]; human, in vivo
  Cmax and AUCinf values upon co-administration with elagolix, in words: increased
[3]
  Effect on Plasma Exposure of Concomitant Drug (direction of change in AUC): ↑ omeprazole
[4]
  Effect on Plasma Exposure of Concomitant Drug (direction of change in AUC): ↑ omeprazole

## CC(NC(C)(C)C)C(=O)c1cccc(Cl)c1.Cl (racemic) [bupropion, (±)-1-(3-chlorophenyl)-2-[(1,1-dimethylethyl)amino]-1-propanone hydrochloride, reference compound]
[1]
  Cmax upon co-administration with elagolix, in words: increased
[1]; elagolix 300 mg BID
  increase in Cmax upon co-administration with elagolix: 25%
[1]; female, human, in vivo, 150 mg
  AUC(0-inf): 1130 ng·h/mL
  AUC(0-t): 1090 ng·h/mL
  Cmax: 89.5 ng/mL
  Tmax: 4 h
[5]; elagolix 300 mg twice daily
  changes in exposures when co-administered with elagolix, in words: No clinically significant changes

## C#C[C@]1(O)CC[C@H]2[C@@H]3CCC4=CC(=O)CC[C@@H]4[C@H]3CC[C@@]21C [Norethindrone]
[5]; [12]
  Ratio (90% CI) AUC, co-administration with elagolix vs medication alone: 0.88
  Ratio (90% CI) Cmax, co-administration with elagolix vs medication alone: 0.95

## COc1ccc2nc([S+]([O-])Cc3ncc(CO)c(OC)c3C)[nH]c2c1 (centres unmarked) [5-hydroxyomeprazole]
[2]
  M:P AUCinf Ratio, Relative Bioavailability Point Estimate: 0.432
  M:P AUCt Ratio, Relative Bioavailability Point Estimate: 0.412
  M:P AUCinf Ratio, Central Value Reference: 0.458
  M:P AUCt Ratio, Central Value Reference: 0.471
  M:P AUCinf Ratio, Central Value Test: 0.198
  M:P AUCt Ratio, Central Value Test: 0.194
[2]; Study Day 1, omeprazole 40 mg
  AUCinf: 883 ng·h/mL
  AUCt: 857 ng·h/mL
  Cmax: 195 ng/mL
  RAUCinf = metabolite-to-omeprazole AUCinf ratio: 0.61
  RAUCt = metabolite-to-omeprazole AUCt ratio: 0.65
  Tmax: 2.0 h
[2]; [13]
  t1/2: 1.88 h
[2]; [11]
  AUCinf: 664 ng·h/mL
  AUCt: 643 ng·h/mL
  Cmax: 134 ng/mL
  RAUCinf = metabolite-to-omeprazole AUCinf ratio: 0.20
  RAUCt = metabolite-to-omeprazole AUCt ratio: 0.20
  Tmax: 3.0 h
[2]; Study Day 11, omeprazole 40 mg + elagolix 300 mg BID, harmonic mean
  t1/2: 1.97 h
[2]; all CYP2C19 genotype subgroups, elagolix co-administration
  decrease in AUCinf in all genotype subgroups: 20-30%
[2]; elagolix 300 mg BID dosing
  decrease in AUCinf: ~25%
  decrease in Cmax: approximately 30%
  decrease in M:P AUCinf ratio: 60%

## C#CC1(O)CC[C@H]2[C@@H]3CCC4=CC(=O)CC[C@@H]4[C@H]3CC[C@@]21CC (some centres unmarked) [Norgestrel]
[5]; [14]
  Ratio (90% CI) AUC, co-administration with elagolix vs medication alone: 0.92
  Ratio (90% CI) Cmax, co-administration with elagolix vs medication alone: 0.89

## COc1ccc2nc(S(=O)(=O)Cc3ncc(C)c(OC)c3C)[nH]c2c1 [omeprazole sulfone]
[2]
  M:P AUCinf Ratio, Relative Bioavailability Point Estimate: 1.246
  M:P AUCt Ratio, Relative Bioavailability Point Estimate: 1.497
  M:P AUCinf Ratio, Central Value Reference: 0.825
  M:P AUCt Ratio, Central Value Reference: 0.679
  M:P AUCinf Ratio, Central Value Test: 1.028
  M:P AUCt Ratio, Central Value Test: 1.017
[2]; Study Day 1, omeprazole 40 mg
  AUCinf: 1400 ng·h/mL
  AUCt: 1240 ng·h/mL
  Cmax: 152 ng/mL
  RAUCinf = metabolite-to-omeprazole AUCinf ratio: 0.85
  RAUCt = metabolite-to-omeprazole AUCt ratio: 0.76
  Tmax: 3.5 h
[2]; [13]
  t1/2: 3.27 h
[2]; [11]
  AUCinf: 3450 ng·h/mL
  AUCt: 3380 ng·h/mL
  Cmax: 411 ng/mL
  RAUCinf = metabolite-to-omeprazole AUCinf ratio: 0.99
  RAUCt = metabolite-to-omeprazole AUCt ratio: 0.97
  Tmax: 4.0 h
[2]; co-administration with elagolix
  Cmax and AUCinf values upon co-administration with elagolix, in words: increased
[2]; elagolix 300 mg BID dosing
  increase in AUCinf: 2.5 fold
  increase in Cmax: 2.7 fold
  increase in M:P AUCinf ratio: 25%
[2]; extensive and intermediate metabolizers, elagolix co-administration
  increase in exposures (AUCinf) in CYP2C19 EM and IM subjects: ~3 fold
[2]; [15]
  AUCinf ratio, co-administered with elagolix vs omeprazole alone: about 2.55
  Cmax ratio, co-administered with elagolix vs omeprazole alone: about 2.70

## C#C[C@]1(O)CC[C@H]2[C@@H]3CCC4=CC(=NO)CC[C@@H]4[C@H]3CC[C@@]21CC (mixture of isomers) [Norelgestromin]
[5]; [14]
  Ratio (90% CI) AUC, co-administration with elagolix vs medication alone: 0.85
  Ratio (90% CI) Cmax, co-administration with elagolix vs medication alone: 0.87

— patent publication US20220257597A1, “Methods of Administering Elagolix” (AbbVie Inc., priority 2021, published 2022)
